Experiments:
Assay type in all cases: in vivo
Echinochloa oryzicola = assay: Herbicidal activity by paddy field soil treatment (Test Example 1); set-up: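 index 0 to 10 in 10% steps of herbicidal effect with 10 meaning complete death and 0 below 10%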; conditions: 1000 g of effective component per hectare, evaluated on day 21 after the treatment, criteria of Table 72
How it was run: (§1)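 Pre-emergence paddy soil test: sown pots, 3 cm flood, water-surface application of diluted wettable powder 1 day after sowing, 1000 g a.i./ha; greenhouse; effect scored on graded scale at day 21.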

Monochoria vaginalis = assay: as above; set-up: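 index 0 to 10 in 10% steps of herbicidal effect with 10 meaning complete death and 0 below 10%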; conditions: 1000 g of effective component per hectare, evaluated on day 21 after the treatment, criteria of Table 72
How it was run: as §1

Scirpus juncoides Rocxb. = assay: as above; set-up: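 index 0 to 10 in 10% steps of herbicidal effect with 10 meaning complete death and 0 below 10%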; conditions: applied on water surface, 1000 g of effective component per hectare, day 21 after the treatment
How it was run: as §1

A. retroflexus [1] = assay: Herbicidal activity by field soil treatment (Test example 2); set-up: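 index 0 to 10 in 10% steps of herbicidal effect with 10 meaning complete death and 0 below 10%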; conditions: 1000 g effective component per hectare, day 21 after the treatment
How it was run: (§2)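 Soil-surface spray after sowing; wettable powder in water, 1000 g a.i./ha at 1000 L/ha. 80 cm^2 pots, field soil, greenhouse. Visual herbicidal score on day 21.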

Echinochloa crus-galli [2] = assay: as above; set-up: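 index 0 to 10 in 10% steps of herbicidal effect with 10 meaning complete death and 0 below 10%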; conditions: 1000 g effective component per hectare, day 21 after the treatment
How it was run: as §2

Indian millet [3] = assay: as above; set-up: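 index 0 to 10 in 10% steps of herbicidal effect with 10 meaning complete death and 0 below 10%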; conditions: 1000 g effective component per hectare, day 21 after the treatment
How it was run: as §2

A. retroflexus [4] = assay: Herbicidal activity by field foliage treatment (Test example 3); set-up: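 index 0 to 10 in 10% steps of herbicidal effect with 10 meaning complete death and 0 below 10%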; conditions: 1000 g effective component per hectare, day 14 after the treatment
How it was run: (§3)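 Post-emergence foliar spray, 2-week-old greenhouse seedlings in field soil; wettable powder in water, 1000 g a.i./ha in 1000 L/ha. Greenhouse hold, visual herbicidal rating at 14 d.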

Indian millet [5] = assay: as above; set-up: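 index 0 to 10 in 10% steps of herbicidal effect with 10 meaning complete death and 0 below 10%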; conditions: 1000 g effective component per hectare, day 14 after the treatment
How it was run: as §3

Echinochloa crus-galli [6] = assay: as above; set-up: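 index 0 to 10 in 10% steps of herbicidal effect with 10 meaning complete death and 0 below 10%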; conditions: 1000 g effective component per hectare, day 14 after the treatment
How it was run: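 Herbicidal effect was rated on day 14 following a foliar spray of 1000 g active ingredient per hectare, applied as water-diluted wettable powder at 1000 L/ha. Plants had been raised for 2 weeks in field soil under greenhouse conditions before spraying.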

Setaria viridis = assay: as above; conditions: 1000 g effective component per hectare, day 14 after the treatment;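 also: index 0 to 10 in 10% steps of herbicidal effect with 10 meaning complete death and 0 below 10%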
Description: Test example 3 Test for Determining Herbicidal Activity by Field Foliage Treatment A 80 cm^2 wide plastic pot was filled with a field soil and seeds of each of Indian millet and A. retroflexus were sowed and then incubated for 2 weeks in a green house. The wettable powder produced with reference to the Formulation example 1 was diluted water, and applied from the air to entire body of the plant as foliage treatment by using a small sprayer in an amount of 1000 liters per hectare so that the effective component is 1000 g per hectare. After that, the plants were cultivated in a greenhouse, and on day 14 after the treatment, evaluation was made by the criteria described in Table 72 for determining the herbicidal effects.

| SMILES | Herbicidal effects index number, Echinochloa oryzicola (Echinochloa oryzicola) | Herbicidal effects index number, Monochoria vaginalis (Monochoria vaginalis) | herbicidal effect index, S. juncoides Rocxb. (Scirpus juncoides Rocxb.) | herbicidal effect index, Amaranthus retroflexus (A. retroflexus [1]) | herbicidal effect index, Echinochloa crus-galli (Echinochloa crus-galli [2]) | herbicidal effect index, Abutilon theophrasti (Indian millet [3]) | herbicidal effect index, Amaranthus retroflexus (A. retroflexus [4]) | herbicidal effect index, Abutilon theophrasti (Indian millet [5]) | herbicidal effect index, Echinochloa crus-galli (Echinochloa crus-galli [6]) | herbicidal effect index, Setaria viridis (Setaria viridis) |
| --- | --- | --- | --- | --- | --- | --- | --- | --- | --- | --- |
| Cc1ccc(Cl)cc1-n1c(=O)c(C(=O)C2=C(O)CCCC2=O)nn(C)c1=O [I-138] | 10 | 10 | 10 | 10 | 9 | 9 | 10 | 9 | 8 | 8 |
| Cn1nc(C(=O)C2=C(O)C(C)(C)CCC2=O)c(=O)n(-c2ccccc2)c1=O [VI-5] | 10 | 10 | 10 | 10 | 8 | 10 | 10 | 10 | 10 | 10 |
| CON=C(C)Cn1c(=O)c(C(=O)C2=C(O)CCCC2=O)nn(C)c1=O [I-471] | 10 | 10 | 10 | 10 | 7 | 10 | 10 | 10 | 9 | 10 |
| CC(CCn1c(=O)c(C(=O)C2=C(O)CCCC2=O)nn(C)c1=O)=C(F)F [I-27] | 10 | 10 | 10 | 10 | 10 | 10 | 9 | 9 | 9 | 6 |
| Cn1nc(C(=O)C2=C(O)CCCC2=O)c(=O)n(-c2ccc(Cl)cn2)c1=O [I-185] | 8 | 9 | 9 | 10 | 9 | 10 | 10 | 9 | 10 | 9 |
| CSCn1c(=O)c(C(=O)C2=C(O)CCCC2=O)nn(C)c1=O [I-43] | 10 | 10 | 10 | 10 | 10 |  | 10 | 9 | 8 | 8 |
| CON=C(C)Cn1c(=O)c(C(=O)O)nn(C)c1=O [V-365] | 10 | 10 | 10 | 10 | 7 | 10 | 10 | 10 | 9 | 10 |
| Cn1nc(C(=O)C2=C(O)CCCC2=O)c(=O)n(-c2ccsc2)c1=O [I-199] | 9 | 8 | 9 | 10 | 9 | 10 | 9 | 9 | 10 | 8 |
| Cn1nc(C(=O)C2=C(O)CCCC2=O)c(=O)n(-c2ccc(C(F)(F)F)cn2)c1=O [I-187] | 10 | 10 | 10 | 10 | 7 | 9 | 10 | 9 | 8 | 8 |
| Cn1nc(C(=O)C2=C(O)CCCC2=O)c(=O)n(-c2cc(F)c(F)c(F)c2)c1=O [I-302] | 10 | 10 | 10 | 10 | 7 | 10 | 10 | 10 | 10 | 10 |
| COc1c(F)cc(-n2c(=O)c(C(=O)C3=C(O)CCCC3=O)nn(C)c2=O)cc1F [Compound I-167] |  |  |  | 10 | 8 | 10 | 10 | 10 | 10 | 8 |
| C#Cc1ccc(-n2c(=O)c(C(=O)C3=C(O)CCCC3=O)nn(C)c2=O)nc1 [I-463] | 10 | 10 | 10 | 7 |  | 10 | 10 | 9 | 7 | 7 |
| Cn1nc(C(=O)O)c(=O)n(-c2cc(Cl)c(Cl)c(Cl)c2)c1=O [V-358] | 10 | 10 | 10 | 10 |  | 10 | 10 | 10 | 8 | 10 |
| Cn1nc(C(=O)O)c(=O)n(-c2cc(C(F)(F)F)cc(C(F)(F)F)c2)c1=O [V-364] | 10 | 10 | 10 | 8 |  | 7 | 10 | 10 | 8 | 9 |
| Cn1nc(C(=O)C2=C(O)CCCC2=O)c(=O)n(-c2ccccc2)c1=S [I-263] | 10 | 10 | 10 | 10 |  | 8 | 10 | 10 | 9 | 9 |
| Cn1nc(C(=O)C2=C(O)C(C)(C)C(=O)C(C)(C)C2=O)c(=O)n(-c2ccccc2)c1=O [VI-1] | 10 | 10 | 10 | 10 |  | 10 | 10 | 10 | 10 | 10 |
| Cn1nc(C(=O)C2=C(O)CC(C)(C)CC2=O)c(=O)n(-c2ccccc2)c1=O [VI-6] | 10 | 10 | 10 | 10 |  | 9 | 10 | 10 | 8 | 10 |

Source: patent US8969554B2, “6-acyl-1,2,4-triazine-3,5-dione derivative and herbicides” (Kumiai Chemical Industry Co., Ltd., priority 2010, dated 2015)
